Entries after “also recorded” stand apart in the source; their conditions may differ. Where two headings read alike, the source gives them in different places.
How the values were obtained:
[1] = system: monkey BCMA-MMH; assay: SPR (Biacore 4000) binding kinetics to monkey BCMA-MMH; settings: 25° C.
Experimental: (§1) The CM5 Biacore sensor surface was derivatized by amine coupling with a monoclonal mouse anti-human Fc antibody (GE, #BR-11008-39) to capture purified anti-BCMA mAbs and anti-BCMA×anti-CD3 bispecific mAbs. All Biacore binding studies were performed in a buffer composed of 0.01 M HEPES pH 7.4, 0.15M NaCl, 3 mM EDTA, 0.05% v/v Surfactant P20 (HBS-ET running buffer). […] Antigen samples were then injected over the anti-BCMA and anti-BCMA×anti-CD3 bispecific mAbs captured surfaces at a flow rate of 30 μL/minute. Antibody-reagent association was monitored for 5 minutes while dissociation in HBS-ET running buffer was monitored for 10 minutes. All of the binding kinetics experiments were performed at 25° C. Kinetic association (ka) and dissociation (kd) rate constants were determined by fitting the real-time sensorgrams to a 1:1 binding model using Scrubber 2.0c curve fitting software. Binding dissociation equilibrium constants (KD) and dissociative half-lives (t½) were calculated from the kinetic rate constants as: […]

[2] = system: Jurkat/NFATLuc.3C7 cells + MM1-S cells; assay: Jurkat/NFATLuc reporter bioassay with MM1-S cells; format: cell-based; settings: highest RLU / lowest RLU
Experimental: (§2) Activity of the anti-BCMA×anti-CD3 bispecific antibodies were assessed in a Jurkat/NFATLuc reporter bioassay utilizing several cell lines with varying levels of BCMA surface expression. The Jurkat cells were engineered to express an NFAT-luciferase reporter (Jurkat/NFATLuc.3C7), and 50,000 Jurkat reporter cells were combined with 50,000 BCMA positive (Daudi, MM1-S, NCI-H929, OPM-2, RPMI-8226, MOLP-8, or Raji) or BCMA negative (HEK293) cells in Thermo Nunclon delta 96 well white microwell plates (Thermo Scientific, Cat #136102) in 50 ul of assay media (RPMI media with 10% FBS and 1% P/S/G). Three-fold serial dilutions of the BCMA×CD3 bispecific antibodies (mAb25441 D or mAb25442D), or a bivalent anti-BCMA antibody (mAb21581) were immediately added in 50 μL of assay buffer. The plates were gently agitated and incubated in a 37° C., 5% CO2 incubator for 4-6 hours. NFAT-Luciferase activity was determined using Promega One-Glo (Cat #E6130) and a Perkin Elmer Envision plate reader. RLU were plotted in GraphPad Prism using a four-parameter logistic equation over a 12-point response curve to calculate EC50 values. […] The signal to noise (S:N) is determined by taking the ratio of the highest RLU on the curve to the lowest.

[3] = target: T1, human BCMA-MMH (Homo sapiens, UniProt Q02223); assay: SPR (Biacore 4000) binding kinetics to human BCMA-MMH; settings: 25° C.
T1 construct: (human BCMA-MMH); myc-myc-hexahistidine (C); made in house
T1 sequence (Q02223 with tags, fused parts or gaps): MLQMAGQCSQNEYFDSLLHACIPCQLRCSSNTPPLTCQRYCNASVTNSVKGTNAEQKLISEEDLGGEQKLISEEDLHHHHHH
Experimental: as §1

[4] = target: T2, human BCMA-MFC (Homo sapiens, UniProt Q02223); assay: SPR (Biacore 4000) binding kinetics to human BCMA-MFC; settings: 25° C.
T2 construct: (human BCMA-MFC); made in house
T2 sequence (Q02223 with tags, fused parts or gaps): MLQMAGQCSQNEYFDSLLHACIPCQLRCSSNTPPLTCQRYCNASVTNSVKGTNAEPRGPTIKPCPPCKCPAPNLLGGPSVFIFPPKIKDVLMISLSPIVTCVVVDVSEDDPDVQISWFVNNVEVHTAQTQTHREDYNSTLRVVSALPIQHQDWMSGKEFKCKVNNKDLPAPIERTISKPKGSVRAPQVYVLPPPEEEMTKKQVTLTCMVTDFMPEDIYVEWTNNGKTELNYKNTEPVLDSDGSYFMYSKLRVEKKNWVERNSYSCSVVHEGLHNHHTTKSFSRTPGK
Experimental: as §1

[5] = target: T3, primary cynomolgus CD8+ T cells (Macaca fascicularis, UniProt Q95LI5+Q95LI8); assay: FACS binding to primary cynomolgus CD8+ T cells; settings: median EC50, FACS binding
T3 construct: endogenous in cells; host or cells: primary cynomolgus CD8+ T cells (gated CD8+/CD16-)
T3 sequence (Q95LI5 22-198): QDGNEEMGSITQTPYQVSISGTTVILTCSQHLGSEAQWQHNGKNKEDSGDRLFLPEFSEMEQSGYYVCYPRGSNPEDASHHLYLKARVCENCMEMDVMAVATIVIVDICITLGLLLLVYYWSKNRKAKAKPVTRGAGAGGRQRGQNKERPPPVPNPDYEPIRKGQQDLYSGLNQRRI
T3 sequence (Q95LI8 22-171): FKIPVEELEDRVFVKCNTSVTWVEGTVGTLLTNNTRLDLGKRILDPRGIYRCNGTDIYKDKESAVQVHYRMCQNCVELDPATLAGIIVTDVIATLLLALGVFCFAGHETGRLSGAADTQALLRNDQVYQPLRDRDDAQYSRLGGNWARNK
T3 sequence (Q95LI7 23-181 partner): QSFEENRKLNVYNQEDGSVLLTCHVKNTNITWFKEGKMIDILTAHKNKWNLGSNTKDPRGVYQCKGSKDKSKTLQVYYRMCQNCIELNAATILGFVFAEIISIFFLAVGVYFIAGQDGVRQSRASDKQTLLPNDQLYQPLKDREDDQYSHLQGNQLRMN
Experimental: Flow cytometric analysis was utilized to determine binding of BCMA×CD3 bispecific antibodies to human and cynomolgus CD3 (Jurkat cells, mfCD3 engineered Jurkat cells, primary human CD8+ and cynomolgus CD8+ T cells). Briefly, 1e05 cells/well were incubated in the presence of FACS wash with block (PBS+1% filtered FBS+5% mouse serum) with a serial dilution of BCMA×CD3 and control antibodies for 30 minutes on ice. After incubation, the cells were washed twice with cold FACS wash (PBS+1% filtered FBS) and bound antibody was detected by incubating with Alexa647-conjugated anti-human secondary antibody on ice for an additional 30 minutes. Wells containing no antibody or secondary only were used as a control. For the detection of monkey and human T cells, a cocktail of human and cynomolgus cross-reactive antibodies to CD4, CD8 and CD16 was added to the anti-human secondary. After incubation, cells were washed, re-suspended in 200 μL cold PBS containing 1% filtered FBS and analyzed by flow cytometry on a BD FACS Canto II. Cells were gated by FSC-H by FSC-A to select singlet events, followed by side and forward scatters to select for live events. For monkey T cells, additional gating on CD8+/CD16− cells was performed.
EC50 values for FACS binding were calculated using 4-parameter non-linear regression analysis in Prism software.

[6] = system: Jurkat/NFATLuc.3C7 cells + OPM-2 cells; assay: Jurkat/NFATLuc reporter bioassay with OPM-2 cells; format: cell-based; settings: highest RLU / lowest RLU
Experimental: as §2

[7] = system: primary cynomolgus plasma cells (CD138+); assay: Autologous T cell-mediated killing of cynomolgus monkey plasma cells; format: cell-based
Experimental: The specific killing of enriched CD138^+ human or cynomolgus monkey plasma cells by unstimulated autologous T cells was assessed by flow cytometry. Human or cynomolgus bone marrow aspirates and blood were provided within 24 hours of harvest. CD138^+ plasma cells were enriched from bone marrow by positive selection using the EasySep™ Human CD138^+ Positive Selection kit according to the manufacturer's instructions. PBMC from whole blood were isolated by density separation. PBMC were labeled with 1 μM of Vybrant™ CFDA-SE fluorescent tracking dye. […] At the end of the culture, surviving CD138^+ plasma cells were analyzed by flow cytometry, utilizing fixable LIVE/DEAD dye and plasma cell specific cell surface markers. Percent viability was normalized to control condition (plasma cells in the presence of PBMC only). T cell activation was assessed by flow cytometry. Activation is reported as the percentage of CD2^+/CD4^+ or CD2^+/CD8^+/CD16^− T cells expressing CD25. Percent T cell activation was normalized to control condition (plasma cells in the presence of PBMC only).

[8] = Cynomolgus Monkey Donor 1 plasma cells, autologous T cells, maximum

monkey BCMA-MMH, sequence (as listed by the source): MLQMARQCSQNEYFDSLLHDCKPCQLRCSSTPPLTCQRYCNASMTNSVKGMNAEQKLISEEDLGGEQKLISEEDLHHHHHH

REGN5459: anti-BCMA×anti-CD3 bispecific antibody: BCMA HCVR of mAb21581 (SEQ 66), CD3 HCVR of mAb7221G20 (SEQ 98), common LCVR SEQ 82
ka [1]: 223000 M⁻¹ s⁻¹ | kd [1]: 0.00864 s⁻¹ | S:N [2]: 120 | ka [3]: 730000 M⁻¹ s⁻¹ | kd [3]: 0.00101 s⁻¹ | ka [4]: 449000 M⁻¹ s⁻¹ | kd [4]: ≤1e-05 s⁻¹ | Mf (Cyno) CD8+ T cells EC50 [M] [5]: did not bind; also recorded: No binding

REGN5458: anti-BCMA×anti-CD3 bispecific antibody: BCMA HCVR of mAb21581 (SEQ 66), CD3 HCVR of mAb7221G (SEQ 90), common LCVR SEQ 82
S:N [2]: 165 | S:N [6]: 8 | T Cell Activation (% CD25 Upregulation) CD4+ T cells % Activation [7, 8]: 9% | T Cell Activation (% CD25 Upregulation) CD8+ T cells % Activation [7, 8]: 12% | EC50 ([7]; Cynomolgus Monkey Donor 1 plasma cells, autologous T cells, read-out: T Cell Activation (% CD25 Upregulation) CD8+ T cells EC50): 0.0224 µM | Cytotoxic Kill Max % Cytotoxicity ([7]; Cynomolgus Monkey Donor 1 plasma cells, autologous primary cynomolgus T cells, E:T 10:1, 72 hours): 94% | EC50 ([7]; Cynomolgus Monkey Donor 1 plasma cells, autologous primary cynomolgus T cells, E:T 10:1, 72 hours, read-out: Cytotoxic Kill EC50): 0.00131 µM | T Cell Activation (% CD25 Upregulation) CD4+ T cells % Activation ([7]; Cynomolgus Monkey Donor 2 plasma cells, autologous T cells, maximum): 16% | EC50 ([7]; Cynomolgus Monkey Donor 2 plasma cells, autologous T cells, read-out: T Cell Activation (% CD25 Upregulation) CD4+ T cells EC50): ~0.0181 µM | Cytotoxic Kill Max % Cytotoxicity ([7]; Cynomolgus Monkey Donor 2 plasma cells, autologous primary cynomolgus T cells, E:T 10:1, 72 hours): 91% | maximum percent T cell activation, CD4+ T cells ([7]; cynomolgus donor 1): 9% | maximum percent T cell activation, CD8+ T cells ([7]; cynomolgus donor 1): 12% | maximum percent cytotoxicity ([7]; cynomolgus donor 1): 94% | EC50 ([7]; cynomolgus donor 1, read-out: CD4+ T cell activation EC50): 0.0281 µM | EC50 ([7]; cynomolgus donor 1, read-out: CD8+ T cell activation EC50): 0.0224 µM | EC50 ([7]; cynomolgus donor 1, read-out: cytotoxicity EC50): 0.00131 µM | maximum percent T cell activation, CD4+ T cells ([7]; cynomolgus donor 2): 16% | maximum percent cytotoxicity ([7]; cynomolgus donor 2): 91% | EC50 ([7]; cynomolgus donor 2, read-out: CD4+ T cell activation EC50): 0.0181 µM | EC50 ([7]; cynomolgus donor 2, read-out: CD8+ T cell activation EC50): 0.0767 µM
